Among the data in patent publication US8796460B2, “Compounds for inhibiting KSP kinesin activity” (Mercky Sharp & Dohme Corp., priority 2007, dated 2014) are EC50 values, retold here.

The first assay deals with HCT116 colon cancer cells. The assay is described as follows: KSP Cellular Assay (percent of cells staining positive for Phos-Histone H3 / Phos-MPM2). The class given is cell-based. Particulars: Homo sapiens, HCT-116, 16 h, Table 101; HCT116 cells, 16 hours with drug; read-out: ED50 (nM) Range. As to the method:
HCT116 colon cancer cells were grown in DMEM:F12 media with 10% heat inactivated FBS at 37 degrees with 5% CO2. Cells were plated at 7,500 cells per well in PDL coated 384-well tissue culture plates. 6 hours later media was removed and new media containing drug was added. Cells were incubated with drug for 16 hours. All further steps were performed at room temperature in the dark. Cells were fixed with 25 ul/well Prefer fixation solution plus 250 nM Hoechst dye and incubated for 30 minutes. The fixation solution was removed and cells were washed with PBS. Cells were then permeabilized with 25 ul/well 0.2% Triton-X in PBS and incubated for 10 minutes. Cells were washed with PBS and then incubated with 25 ul/well PBS containing 3% FBS for 30 minutes. Cells were then stained overnight at 4 degrees with 25 ul/well antibody solution in PBS plus 3% FBS. Antibodies used were Phos-Histone H3 (ser10)-Alexa Flur 488 Conjugate and Phos-MPM2 Texas Red Conjugate. Cells were washed with PBS and then immunofluorescence images captured with HT Pathway microscope. The percent of cells staining positive was calculated and EC50 values for the compounds of the invention that were tested were determined using Excel XLfit.
EC50 Determinations: Dose-response curves were plotted from inhibition data generated each in duplicate, from 8 point serial dilutions of inhibitory compounds. Concentration of compound was plotted against enzyme activity (OD reading). To generate EC50 values, the dose-response curves were then fitted to a standard sigmoidal curve and EC50 values were derived by nonlinear regression analysis.
On to `CC(=O)N1N=C(c2cc(F)ccc2F)SC12CCCc1ccccc12` (stereo not shown) [compound 101], for which the EC50 is over 1000 nM.
Take `CC(=O)N1N=C(c2cc(F)ccc2F)SC12CCOc1ccccc12` (stereo not shown) [compound 102]: the EC50 was at most 500 nM.
As to `CC(=O)N1N=C(c2cc(F)ccc2F)SC12CCCc1sccc12` (stereo not shown) [compound 103], the EC50 is over 1000 nM.
On to `CC(=O)N1N=C(c2cc(F)ccc2F)SC12CCSc1ccccc12` (stereo not shown) [compound 104], for which the EC50 was over 1000 nM.
On to `CC(=O)N1N=C(c2cc(F)ccc2F)SC12CCc1ccccc12` (stereo not shown) [compound 105], for which the EC50 is at most 500 nM.
With `CC(=O)N1N=C(c2cc(F)ccc2F)SC12COc1ccccc12` (stereo not shown) [compound 106], the EC50 was at most 500 nM.
Consider `CC(=O)N1N=C(c2cc(F)ccc2F)SC12CCCc1ccsc12` (stereo not shown) [compound 107], for which the EC50 was over 500 nM.
`CC(=O)N1N=C(c2cc(F)ccc2F)SC12CC[S+]([O-])c1ccccc12` (stereo not shown) [compound 108]: the EC50 was over 1000 nM.
Same read-out and setting: the value for `CC(=O)N1N=C(c2cc(F)ccc2F)SC12CCS(=O)(=O)c1ccccc12` (stereo not shown) [compound 109] was over 1000 nM.
For the molecule `CC(=O)N1N=C(c2cc(F)ccc2F)SC12CCNc1ccccc12` (stereo not shown) [compound 110], the EC50 was at most 500 nM.
Consider `CC(=O)N1N=C(c2cc(F)ccc2F)SC12CCN(C)c1ccccc12` (stereo not shown) [compound 111], for which the EC50 was over 1000 nM.
For the molecule `CC(=O)N1CCC2(SC(c3cc(F)ccc3F)=NN2C(C)=O)c2ccccc21` (stereo not shown) [compound 112], the EC50 is over 1000 nM.
For the molecule `CCOC(=O)N1CCC2(SC(c3cc(F)ccc3F)=NN2C(C)=O)c2ccccc21` (stereo not shown) [compound 113], the EC50 was over 1000 nM.
As for `CC(=O)N1N=C(c2cc(F)ccc2F)SC12CCN(C(C)=S)c1ccccc12` (stereo not shown) [compound 114], the EC50 was over 1000 nM.
With `CC(=O)N1N=C(c2cc(F)ccc2F)SC12CC(C)Oc1ccc(F)cc12` (stereo not shown) [compound 115], the EC50 is over 1000 nM.
Take `CC(=O)N1N=C(c2cc(F)ccc2F)SC12CCOc1ccc(F)cc12` (stereo not shown) [compound 116]: the EC50 was at most 500 nM.
Turning to `CC(=O)N1N=C(c2cc(F)ccc2F)SC12CC(c1ccccc1)Oc1ccccc12` (stereo not shown) [compound 117], the EC50 was over 1000 nM.
Turning to `CC(=O)N1N=C(c2cc(F)ccc2F)S[C@@]12CCc1ccccc12` [compound 118], the EC50 is at most 500 nM.
For the molecule `CC(=O)N1N=C(c2cc(F)ccc2F)S[C@]12CCc1ccccc12` [compound 119], the EC50 is 500 to 1000 nM.
`CC(=O)N1N=C(C2=C(F)CCC(F)=C2)SC12Cc1ccccc12` (stereo not shown) [compound 120]: the EC50 was at most 500 nM.
Still for that read-out and setting: for `CC(=O)N1N=C(c2cc(F)ccc2F)SC12CCCOc1ccccc12` (stereo not shown) [compound 121] the value was over 1000 nM.
On to `CC(=O)N1N=C(c2cc(F)ccc2F)SC12CCCCc1ccccc12` (stereo not shown) [compound 122], for which the EC50 is over 1000 nM.
With `CC(=O)N1N=C(c2cc(F)ccc2F)SC12CCCc1ncccc12` (stereo not shown) [compound 123], the EC50 was over 1000 nM.
As to `CC(=O)N1N=C(c2cc(F)ccc2F)SC12CCCc1cccnc12` (stereo not shown) [compound 124], the EC50 is over 1000 nM.
In the case of `CC(=O)N1N=C(c2cc(F)ccc2F)SC12CC1(CCNCC1)Oc1ccccc12` (stereo not shown) [compound 125], the EC50 was over 1000 nM.
With `CC(=O)N1CCC2(CC1)CC1(SC(c3cc(F)ccc3F)=NN1C(C)=O)c1ccccc1O2` (stereo not shown) [compound 126], the EC50 is over 1000 nM.
Consider `CC(=O)N1N=C(c2cc(F)ccc2F)SC12C(=O)Nc1ccccc12` (stereo not shown) [compound 127], for which the EC50 was over 1000 nM.
For the molecule `CC(=O)N1C(=O)C2(SC(c3cc(F)ccc3F)=NN2C(C)=O)c2ccccc21` (stereo not shown) [compound 128], the EC50 is over 1000 nM.

The same assay, now with this note: Homo sapiens, HCT-116, 16 h, Table 401; HCT116 cells, 16 hours with drug; read-out: ED50 (nM) Range.
For the molecule `O=C(C1CCNCC1)N1N=C(c2cc(F)ccc2F)SC12CCCc1ccccc12` (stereo not shown) [compound 401], the EC50 was over 1000 nM.
Take `CC(C)[C@H](O)C(=O)N1N=C(c2cc(F)ccc2F)SC12CCCc1ccccc12` (stereo partly shown) [compound 402]: the EC50 was over 1000 nM.
On the same count and under the same terms, the value for `O=C([C@@H]1CCCCN1)N1N=C(c2cc(F)ccc2F)SC12CCSc1ccccc12` (stereo partly shown) [compound 403] was over 1000 nM; that for `O=C(C1CCCCN1)N1N=C(c2cc(F)ccc2F)SC12CCOc1ccccc12` (stereo not shown) [compound 404] was over 1000 nM; that for `O=C(C1CCCNC1)N1N=C(c2cc(F)ccc2F)SC12CCSc1ccccc12` (stereo not shown) [compound 405] was over 1000 nM.
Turning to `O=C(C1CCNCC1)N1N=C(c2cc(F)ccc2F)SC12CCSc1ccccc12` (stereo not shown) [compound 406], the EC50 was over 1000 nM.
Consider `O=C(C1CCCNC1)N1N=C(c2cc(F)ccc2F)SC12CCOc1ccccc12` (stereo not shown) [compound 407], for which the EC50 is over 1000 nM.
For the molecule `O=C(C1CCNCC1)N1N=C(c2cc(F)ccc2F)SC12CCOc1ccccc12` (stereo not shown) [compound 408], the EC50 was over 1000 nM.
With `CC(C)[C@H](O)C(=O)N1N=C(c2cc(F)ccc2F)SC12CCCc1sccc12` (stereo partly shown) [compound 409], the EC50 is over 1000 nM.
Regarding `O=C(C1CCCN1)N1N=C(c2cc(F)ccc2F)SC12CCCc1ccccc12` (stereo not shown) [compound 410], the EC50 is over 1000 nM.
For `O=C([C@@H]1CCCN1)N1N=C(c2cc(F)ccc2F)SC12CCCc1sccc12` (stereo partly shown) [compound 411], the EC50 was over 1000 nM.
With `O=C(C1CCNC1)N1N=C(c2cc(F)ccc2F)SC12CCCc1ccccc12` (stereo not shown) [compound 412], the EC50 is over 1000 nM.
Turning to `O=C([C@@H]1CCCN1)N1N=C(c2cc(F)ccc2F)SC12CCSc1ccccc12` (stereo partly shown) [compound 413], the EC50 was over 1000 nM.
For `O=C([C@@H]1CCCCN1)N1N=C(c2cc(F)ccc2F)SC12CCCc1ccccc12` (stereo partly shown) [compound 414], the EC50 is over 1000 nM.
Consider `N[C@H](C(=O)N1N=C(c2cc(F)ccc2F)SC12CCSc1ccccc12)C1CC1` (stereo partly shown) [compound 415], for which the EC50 is over 1000 nM.
Turning to `O=C(C1CCCNC1)N1N=C(c2cc(F)ccc2F)SC12CCCc1ccccc12` (stereo not shown) [compound 416], the EC50 was over 1000 nM.
As to `N[C@H](C(=O)N1N=C(c2cc(F)ccc2F)SC12CCCc1sccc12)C1CC1` (stereo partly shown) [compound 417], the EC50 is over 1000 nM.
For `N[C@H](C(=O)N1N=C(c2cc(F)ccc2F)SC12CCCc1ccccc12)C1CC1` (stereo partly shown) [compound 418], the EC50 was over 1000 nM.
In the case of `N[C@H](C(=O)N1N=C(c2cc(F)ccc2F)SC12CCOc1ccccc12)C1CC1` (stereo partly shown) [compound 419], the EC50 was over 1000 nM.
Regarding `N[C@H](C(=O)N1N=C(c2cc(F)ccc2F)SC12CCc1ccccc12)C1CC1` (stereo partly shown) [compound 420], the EC50 was over 1000 nM.

Staying with this assay, now noted: Homo sapiens, HCT-116, 16 h, Table 1201 (Example 1201); HCT116 cells, 16 hours with drug; read-out: EC50 (nM) Range.
For the molecule `CC(=O)N1N=C(c2cc(F)ccc2F)S[C@@]12c1ccccc1OC[C@H]2CCN1CCOCC1` (single isomer, unassigned) [compound 1201], the EC50 is at most 500 nM.

Still in this assay, the particulars now being: Homo sapiens, HCT-116, 16 h, table of Example 1001; HCT116 cells, 16 hours with drug; read-out: EC50 (nM) Range.
In the case of `CC(=O)N1N=C(c2cc(F)ccc2F)S[C@]12c1ccccc1OC[C@H]2CCCO` (single isomer, unassigned) [compound 1002], the EC50 was at most 500 nM.
On to `CC(=O)N1N=C(c2cc(F)ccc2F)S[C@]12c1ccccc1OC[C@@H]2CCCO` (single isomer, unassigned) [compound 1003], for which the EC50 was over 1000 nM.

The same assay, now with this note: Homo sapiens, HCT-116, 16 h, table of Example 1801 (headed Table 1201); HCT116 cells, 16 hours with drug; read-out: EC50 (nM) Range.
In the case of `CC(=O)N1N=C(c2ccc(F)cc2F)S[C@@]12c1ccccc1OC[C@H]2CCN` (single isomer, unassigned) [compound 1801], the EC50 is at most 500 nM.

Staying with this assay, now noted: Homo sapiens, HCT-116, 16 h, table of Example 1901; HCT116 cells, 16 hours with drug; read-out: EC50 (nM) Range.
As for `CO[C@@H](C)C(=O)N1N=C(c2cc(F)ccc2F)S[C@]12c1cc(F)ccc1OC[C@@H]2CCN` (single isomer, unassigned) [compound 1901], the EC50 was over 1000 nM.

The same assay, now with this note: Homo sapiens, HCT-116, 16 h, table of Example 2101; HCT116 cells, 16 hours with drug; read-out: EC50 (nM) Range.
As for `CCOC(=O)N1N=C(c2cc(F)ccc2F)S[C@@]12c1cc(F)ccc1OC[C@H]2CCN` (single isomer, unassigned) [compound 2101], the EC50 is at most 500 nM.

The same assay, now with this note: Homo sapiens, HCT-116, 16 h, table of Example 2201; HCT116 cells, 16 hours with drug; read-out: EC50 (nM) Range.
In the case of `CN(C)C(=O)N1N=C(c2cc(F)ccc2F)S[C@@]12c1cc(F)ccc1OC[C@H]2CCN` (single isomer, unassigned) [compound 2201], the EC50 is over 1000 nM.

Staying with this assay, now noted: Homo sapiens, HCT-116, 16 h, table of Example 2401; HCT116 cells, 16 hours with drug; read-out: EC50 (nM) Range.
As to `CC(=O)N1N=C(c2cc(F)ccc2F)S[C@@]12CCNc1ccccc12` (single isomer, unassigned) [compound 2401], the EC50 is at most 500 nM.

Still in this assay, the particulars now being: Homo sapiens, HCT-116, 16 h, table of Example 2901; HCT116 cells, 16 hours with drug; read-out: EC50 (nM) Range.
`CC(=O)N1N=C(c2cc(F)ccc2F)S[C@@]12c1cc(F)ccc1NC[C@@H]2CCN` (single isomer, unassigned) [compound 2901]: the EC50 was at most 500 nM.

Still in this assay, the particulars now being: Homo sapiens, HCT-116; read-out: EC50 (nM) Range.
With `C=CC[C@@H]1CNc2ccccc2[C@]12SC(c1cc(F)ccc1F)=NN2C(C)=O` (single isomer, unassigned) [compound 3001], the EC50 was at most 500 nM.
